US9309262B2 (ABT Holding Company, priority 2013, dated 2016)

target: T1, human 5HT2c receptor (VSV isoform) (Homo sapiens, UniProt P28335, I156V/I160V/N158S); assay: cell-based
T1 construct: expressed in transfected cells; host or cells: HEK 293 EBNA, stably transfected
T1 sequence (P28335 33-458 I156V/N158S/I160V): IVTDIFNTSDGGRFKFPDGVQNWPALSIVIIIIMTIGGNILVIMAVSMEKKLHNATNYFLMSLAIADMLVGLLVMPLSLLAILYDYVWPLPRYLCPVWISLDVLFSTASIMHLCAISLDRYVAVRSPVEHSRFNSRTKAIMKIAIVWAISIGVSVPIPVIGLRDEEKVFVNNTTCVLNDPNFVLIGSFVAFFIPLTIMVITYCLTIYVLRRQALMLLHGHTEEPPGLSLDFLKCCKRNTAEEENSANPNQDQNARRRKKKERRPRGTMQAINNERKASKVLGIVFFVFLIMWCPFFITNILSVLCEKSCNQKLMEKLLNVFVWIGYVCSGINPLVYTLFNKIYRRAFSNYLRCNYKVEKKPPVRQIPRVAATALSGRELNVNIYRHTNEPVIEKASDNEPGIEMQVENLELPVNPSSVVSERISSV

Row | Compound | EC50
1 | CCn1ccc2sc3c(c21)CCNCC3 [Example 1, 3,4,5,6,7,8-Hexahydro-9-thia-3,6-diaza-cyclopenta[a]alazulene] | < 10 nM
2 | c1ccc(Cn2ccc3sc4c(c32)CCNCC4)cc1 [Example 4, 3-Benzyl-3,4,5,6,7,8-hexahydro-9-thia-3,6-diaza-cyclopenta[a]azulene] | < 10 nM
3 | Clc1ccc(-n2ccc3sc4c(c32)CCNCC4)cc1 [Example 5, 3-(4-Chloro-phenyl)-3,4,5,6,7,8-hexahydro-9-thia-3,6-diaza-cyclopenta[a]azulene] | < 1000 nM
4 | Cc1ccccc1Cn1ccc2sc3c(c21)CCNCC3 [Example 6, 3-(2-Methyl-benzyl)-3,4,5,6,7,8-hexahydro-9-thia-3,6-diaza-cyclopenta[a]azulene] | < 10 nM
5 | Cc1cccc(Cn2ccc3sc4c(c32)CCNCC4)c1 [Example 7, 3-(3-Methyl-benzyl)-3,4,5,6,7,8-hexahydro-9-thia-3,6-diaza-cyclopenta[a]azulene] | < 10 nM
6 | Cc1ccc(Cn2ccc3sc4c(c32)CCNCC4)cc1 [Example 8, 3-(4-Methyl-benzyl)-3,4,5,6,7,8-hexahydro-9-thia-3,6-diaza-cyclopenta[a]azulene] | < 10 nM
7 | Clc1cccc(Cn2ccc3sc4c(c32)CCNCC4)c1 [Example 10] | < 10 nM
8 | Clc1ccc(Cn2ccc3sc4c(c32)CCNCC4)cc1 [Example 11] | < 10 nM
9 | Cc1ccc(-n2ccc3sc4c(c32)CCNCC4)cc1 [Example 13, 3-p-Tolyl-3,4,5,6,7,8-hexahydro-9-thia-3,6-diaza-cyclopenta[a]azulene] | < 100 nM
10 | COc1ccc(-n2ccc3sc4c(c32)CCNCC4)cc1 [Example 14, 3-(4-Methoxy-phenyl)-3,4,5,6,7,8-hexahydro-9-thia-3,6-diaza-cyclopenta[a]azulene] | < 100 nM
11 | Cc1cccc(-n2ccc3sc4c(c32)CCNCC4)c1 [Example 15, 3-m-Tolyl-3,4,5,6,7,8-hexahydro-9-thia-3,6-diaza-cyclopenta[a]azulene] | < 100 nM
12 | COc1cccc(-n2ccc3sc4c(c32)CCNCC4)c1 [Example 16, 3-(3-Methoxy-phenyl)-3,4,5,6,7,8-hexahydro-9-thia-3,6-diaza-cyclopenta[a]azulene] | < 1000 nM
13 | Clc1cccc(-n2ccc3sc4c(c32)CCNCC4)c1 [Example 17, 3-(3-Chloro-phenyl)-3,4,5,6,7,8-hexahydro-9-thia-3,6-diaza-cyclopenta[a]azulene] | < 100 nM
14 | COc1cccc(Cn2ccc3sc4c(c32)CCNCC4)c1 [Example 18, 3-(3-Methoxy-benzyl)-3,4,5,6,7,8-hexahydro-9-thia-3,6-diaza-cyclopenta[a]azulene] | < 10 nM
15 | COc1ccc(Cn2ccc3sc4c(c32)CCNCC4)cc1 [Example 19, 3-(4-Methoxy-benzyl)-3,4,5,6,7,8-hexahydro-9-thia-3,6-diaza-cyclopenta[a]azulene] | < 100 nM
16 | c1cn(CC2CCCCC2)c2c3c(sc12)CCNCC3 [Example 20, 3-Cyclohexylmethyl-3,4,5,6,7,8-hexahydro-9-thia-3,6-diaza-cyclopenta[a]azulene] | < 100 nM
17 | c1ccc2c(Cn3ccc4sc5c(c43)CCNCC5)cccc2c1 [Example 21, 3-Naphthalen-1-ylmethyl-3,4,5,6,7,8-hexahydro-9-thia-3,6-diaza-cyclopenta[a]azulene] | < 10 nM
18 | Clc1cccc(Cn2ccc3sc4c(c32)CCNCC4)c1Cl [Example 22, 3-(2,3-Dichloro-benzyl)-3,4,5,6,7,8-hexahydro-9-thia-3,6-diaza-cyclopenta[a]azulene] | < 10 nM
19 | Clc1ccc(Cn2ccc3sc4c(c32)CCNCC4)cc1Cl [Example 23, 3-(3,4-Dichloro-benzyl)-3,4,5,6,7,8-hexahydro-9-thia-3,6-diaza-cyclopenta[a]azulene] | < 10 nM
20 | c1cnc2c(Cn3ccc4sc5c(c43)CCNCC5)cccc2c1 [Example 24, 3-Quinolin-8-ylmethyl-3,4,5,6,7,8-hexahydro-9-thia-3,6-diaza-cyclopenta[a]azulene] | < 100 nM
21 | c1cc(Cn2ccc3sc4c(c32)CCNCC4)c2ccncc2c1 [Example 25, 3-Isoquinolin-5-ylmethyl-3,4,5,6,7,8-hexahydro-9-thia-3,6-diaza-cyclopenta[a]azulene] | < 10 nM
22 | c1ccc2c(Cn3ccc4sc5c(c43)CCNCC5)nccc2c1 [Example 26, 3-Isoquinolin-1-ylmethyl-3,4,5,6,7,8-hexahydro-9-thia-3,6-diaza-cyclopenta[a]azulene] | < 10 nM
